In PubChem BioAssay (NCI) one finds TGI and GI50 data, which are given here for 15 compounds.

Where “and” joins values, the source holds several entries; their conditions need not be identical. Equal entries are not always repeated.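 Exposure lasted 48 hours, with cells grown in 96-well plates and compounds tested at five concentrations. Abbreviation: GI50, concentration required for 50% inhibition of growth. At the TGI there is no net growth.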

Holding throughout (assay): NCI-60 cell line screen, 48 h
Test [1] concerns HOP-92 NSCLC.
The test system of test [2] is IGROV1 ovarian.
For test [3], the system named is SN12C renal.
Test [4] deals with SR leukemia.
Test [5] concerns HCC-2998 colon.
The subject of test [6] is HOP-62 NSCLC.
Test [7] relates to COLO 205 colon.
Test [8] relates to HCT-116 colon.
Test [9] concerns NCI/ADR-RES ovarian.
The test system of test [10] is MDA-MB-231 breast.

As to `CN1C(c2ccccc2)CC(C)(O)CC1c1ccccc1` (centres undefined), the TGI in [1], in test [2], in test [3], in test [4], in [5] and in test [6] was greater than 100 µM each time. The TGI in test [7] and in test [8] was greater than 100 µM each time.
On to `Cn1cnc([N+](=O)[O-])c1Sc1nc2ccccc2o1`, for which the TGI in test [1] is 12.4 µM; in [2], 27.7 µM; in [3], 18.5 µM; in test [4] it was 8.14 µM; in test [5] it was 24.9 µM; in test [6], greater than 94.4 µM. For the same compound, the TGI was 3.4 µM in test [7] and 11.6 µM in test [8].
Take `CCC[CH2][Sn]1([CH2]CCC)[O]C(=O)CN=C(C)c2ccccc2[O]1`: the GI50 in test [1] is 0.978 µM; in test [2], 2.83 µM; in test [3], 1.13 µM; in [5] it was 1.53 µM; in test [6] it was 5.21 µM; in test [7], 0.569 µM. In addition, in test [8], the GI50 is 1.55 µM. For the same compound, the TGI in test [1] was 2.18 µM; in test [2] it was greater than 100 µM; in test [3], 2.34 µM; in [5] it was 2.92 µM; in [6], greater than 100 µM; in test [7], 1.9 µM. The same compound came in with a TGI in test [8] of 2.92 µM.
For `O=C(O)CCC(=O)Oc1ccc(O)c2c1CCCC2=O`, the TGI in test [2], in [3], in [4], in test [5], in [6] and in test [7] was greater than 100 µM throughout. The compound also returned a TGI in test [8] greater than 100 µM.
`COC(=O)[C@H](Cc1ccccc1)NNC(=O)c1csc([C@@H](C[C@H](C(C)C)N(C)C(=O)[C@@H](NC(=O)[C@H]2CCCCN2C)C2CC2)OC(C)=O)n1`: the TGI was 25 µM and > 100 µM in test [2]; 25 µM and > 100 µM in test [3]; 25 µM and > 100 µM in [4]; 25 µM and > 100 µM in test [5]; 25 µM and > 100 µM in [6]; 25 µM and > 100 µM in test [9]. In addition, the TGI in test [8] is 25 µM and > 100 µM. Further, the GI50 in test [4] was 0.00139 µM and 0.0025 µM; in test [9], 15.7 µM and 11 µM.
For the compound `CC(=O)NC(CS)C(=O)O` (centres undefined), the TGI in [2] was 16600 µM; in test [3] it was greater than 100 µM; in [4] it was greater than 100 µM; in test [5], > 100 µM and 50800 µM; in test [6], 45500 µM; in test [7], greater than 100 µM. The TGI in test [9] is > 100 µM and 81500 µM; in [8] it was > 100 µM and 52800 µM. Besides, the GI50 in test [3], in test [4], in [5], in test [7], in test [9] and in test [8] was greater than 100 µM each time.
Take `N#CC(C(=O)CCC(=O)Nc1ccc(Cl)cc1)c1ccc(Cl)cc1` (centres undefined): the TGI in test [1], in [2], in test [3], in test [5], in [6] and in test [7] was greater than 100 µM in each case. Further, the TGI in test [8] was greater than 100 µM.
As for `O=C1C(Cl)=C(Cl)C(=O)N1c1ccccc1Cl`, the TGI in test [1] is greater than 79.4 µM; in test [2], greater than 100 µM; in test [3], greater than 100 µM; in test [4], 69.7 µM; in test [5], greater than 100 µM; in test [6], greater than 100 µM. Besides, the TGI in test [7] and in test [8] was greater than 100 µM in each case.
With `CCC(C)C(=O)O[C@H]1C(=O)O[C@@H]2C[C@H]3C(C)=CC(=O)[C@@H](O)[C@]3(C)[C@H]3[C@@H](O)[C@H](O)[C@@]4(C)OC[C@]32[C@@H]14` (some centres undefined), the TGI is 0.0889 µM in test [2]; less than 0.0135 µM in test [3]; less than 0.0204 µM in test [4]; less than 0.024 µM in test [5]; 0.278 µM in test [7]; less than 0.01 µM in test [8]. In [10], this compound showed a TGI of 0.388 µM.
For `O=C(CCC(=O)Nc1ccc(Cl)cc1)CC(=O)c1ccc2ccccc2c1`, the TGI in [1], in [2], in test [3], in [4], in test [5] and in [6] was greater than 100 µM throughout. The TGI in [7] and in [8] was greater than 100 µM in each case.
With `O=C(Nc1ccccc1)n1cc(-c2ccccn2)c(N2CCOCC2)n1`, the TGI in test [1], in test [2], in test [3], in test [5], in [6] and in test [7] was greater than 100 µM throughout. In test [8], this compound displayed a TGI greater than 100 µM.
For the compound `Cc1ccccc1C=NC12CC3CC(CC(C3)C1)C2`, the TGI in test [1], in test [2], in [3], in test [5], in [6] and in test [7] was greater than 100 µM in each case. The same compound showed a TGI in [8] greater than 100 µM.
Turning to `CC(=O)n1nnc2ccc([N+](=O)[O-])cc21`, the TGI in test [1], in test [2], in test [3], in test [4], in test [6] and in test [7] was greater than 100 µM in each case. The compound also displayed a TGI in test [8] greater than 100 µM.
As for `Cn1nc(-c2ccccc2)c2c(/C=C/c3ccc(Cl)cc3)onc2c1=O`, the TGI is 57.1 µM in [1]; greater than 100 µM in [2]; greater than 100 µM in test [3]; greater than 100 µM in [7]; 28.4 µM in test [8].
Turning to `COC(=O)C(=NNc1ccccc1[N+](=O)[O-])C(=O)OC`, the TGI in [1], in test [2], in [3], in test [4], in test [5] and in test [6] was greater than 100 µM each time. Moreover, the TGI in test [7] and in test [8] was greater than 100 µM in each case.
